Measurements as given in ChEMBL document CHEMBL4371021, “BH3 mimetics derived from Bim-BH3 domain core region show PTP1B inhibitory activity” (Bioorg Med Chem Lett, 2019).
The source made the active and inactive calls. The rule behind the calls is not given here. Residues, ends and D or L forms follow the SMILES beside them.

Assays:
[1] = target: Tyrosine-protein phosphatase non-receptor type 1 (Homo sapiens) (UniProt P18031); test: (§1) Inhibition of recombinant human N-terminal poly histidine-tagged PTP1B (Glu2 to Asn321 residues) expressed in Escherichia coli at 40 umol/L using pNPP as substrate measured for 4 mins relative to control
[2] = target: T1, Tyrosine-protein phosphatase non-receptor type 1 (Homo sapiens) (UniProt P18031); test: as §1; remark: listed apart in the source
T1 sequence (whole entry): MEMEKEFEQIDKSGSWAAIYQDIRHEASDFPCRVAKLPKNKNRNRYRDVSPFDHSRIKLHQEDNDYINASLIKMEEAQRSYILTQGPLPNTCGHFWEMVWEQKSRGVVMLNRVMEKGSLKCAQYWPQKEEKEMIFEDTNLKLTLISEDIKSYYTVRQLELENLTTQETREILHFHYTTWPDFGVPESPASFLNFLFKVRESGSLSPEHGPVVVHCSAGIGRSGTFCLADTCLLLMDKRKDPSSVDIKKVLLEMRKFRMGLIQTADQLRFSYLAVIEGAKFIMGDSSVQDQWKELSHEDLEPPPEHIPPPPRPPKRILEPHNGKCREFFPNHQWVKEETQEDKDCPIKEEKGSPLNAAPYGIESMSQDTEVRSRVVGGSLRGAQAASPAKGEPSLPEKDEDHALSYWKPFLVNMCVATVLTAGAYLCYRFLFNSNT

[3] = target: T1, Tyrosine-protein phosphatase non-receptor type 1 (Homo sapiens); test: Binding affinity to recombinant human N-terminal poly histidine-tagged PTP1B (Glu2 to Asn321 residues) expressed in Escherichia coli assessed as association rate constant by surface plasmon resonance analysis
[4] = target: T2, Tyrosine-protein phosphatase non-receptor type 1 (Homo sapiens, UniProt P18031); test: Binding affinity to recombinant human N-terminal poly histidine-tagged PTP1B (Glu2 to Asn321 residues) expressed in Escherichia coli by surface plasmon resonance analysis
T2 sequence (P18031 whole entry): T1 sequence (whole entry)

[5] = target: T1, Tyrosine-protein phosphatase non-receptor type 1 (Homo sapiens); test: Binding affinity to recombinant human N-terminal poly histidine-tagged PTP1B (Glu2 to Asn321 residues) expressed in Escherichia coli assessed as dissociation rate constant by surface plasmon resonance analysis
[6] = target: T3, Tyrosine-protein phosphatase non-receptor type 11 (Homo sapiens) (UniProt Q06124); test: Inhibition of human GST-tagged SHP2 (1116 to 2162 residues) at 5 umol/L using OMFP as substrate measured for 4 mins relative to control
T3 sequence (whole entry): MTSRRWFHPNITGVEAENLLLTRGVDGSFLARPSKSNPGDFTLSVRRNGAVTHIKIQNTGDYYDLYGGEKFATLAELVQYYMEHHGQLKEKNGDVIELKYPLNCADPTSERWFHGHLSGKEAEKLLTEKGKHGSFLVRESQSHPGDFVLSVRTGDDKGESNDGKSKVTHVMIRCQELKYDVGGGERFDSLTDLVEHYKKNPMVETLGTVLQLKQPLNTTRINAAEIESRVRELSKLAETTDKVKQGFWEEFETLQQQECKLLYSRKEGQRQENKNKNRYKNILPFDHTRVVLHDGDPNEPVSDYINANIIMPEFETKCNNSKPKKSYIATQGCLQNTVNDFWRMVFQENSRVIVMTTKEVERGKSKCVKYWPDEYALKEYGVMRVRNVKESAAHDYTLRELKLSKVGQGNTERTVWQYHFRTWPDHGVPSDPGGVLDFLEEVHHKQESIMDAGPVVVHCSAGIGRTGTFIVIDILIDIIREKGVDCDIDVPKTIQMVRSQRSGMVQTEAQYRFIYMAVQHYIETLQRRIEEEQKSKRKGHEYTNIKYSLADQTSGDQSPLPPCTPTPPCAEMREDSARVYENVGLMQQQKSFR

[7] = target: T4, Tyrosine-protein phosphatase non-receptor type 2 (Homo sapiens) (UniProt P17706); test: Inhibition of human GST-tagged TCPTP (41 to 1075 residues) expressed in Escherichia coli at 2.5 umol/L using pNPP as substrate measured for 4 mins relative to control
T4 sequence (whole entry): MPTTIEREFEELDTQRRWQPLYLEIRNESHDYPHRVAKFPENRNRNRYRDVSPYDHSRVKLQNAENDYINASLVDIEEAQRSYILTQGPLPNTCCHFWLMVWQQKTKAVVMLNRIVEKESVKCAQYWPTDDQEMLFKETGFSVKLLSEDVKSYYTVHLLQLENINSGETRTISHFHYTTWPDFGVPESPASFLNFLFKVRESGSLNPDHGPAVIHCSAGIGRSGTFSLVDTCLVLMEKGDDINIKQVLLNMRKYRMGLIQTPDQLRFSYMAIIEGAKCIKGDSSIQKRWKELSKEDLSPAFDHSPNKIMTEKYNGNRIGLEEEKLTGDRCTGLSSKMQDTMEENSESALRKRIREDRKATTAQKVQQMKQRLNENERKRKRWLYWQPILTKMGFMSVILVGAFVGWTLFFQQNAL

[8] = target: T3, Tyrosine-protein phosphatase non-receptor type 11 (Homo sapiens); test: Inhibition of human GST-tagged SHP2 (1116 to 2162 residues) at 10 umol/L using OMFP as substrate measured for 4 mins relative to control
[9] = target: Tyrosine-protein phosphatase non-receptor type 6 (Homo sapiens) (UniProt P29350); test: Inhibition of SHP1 (unknown origin) at 5 umol/L using OMFP as substrate measured for 4 mins relative to control
Tyrosine-protein phosphatase non-receptor type 6 (Homo sapiens), sequence (P29350 whole entry, the tested form may be a part): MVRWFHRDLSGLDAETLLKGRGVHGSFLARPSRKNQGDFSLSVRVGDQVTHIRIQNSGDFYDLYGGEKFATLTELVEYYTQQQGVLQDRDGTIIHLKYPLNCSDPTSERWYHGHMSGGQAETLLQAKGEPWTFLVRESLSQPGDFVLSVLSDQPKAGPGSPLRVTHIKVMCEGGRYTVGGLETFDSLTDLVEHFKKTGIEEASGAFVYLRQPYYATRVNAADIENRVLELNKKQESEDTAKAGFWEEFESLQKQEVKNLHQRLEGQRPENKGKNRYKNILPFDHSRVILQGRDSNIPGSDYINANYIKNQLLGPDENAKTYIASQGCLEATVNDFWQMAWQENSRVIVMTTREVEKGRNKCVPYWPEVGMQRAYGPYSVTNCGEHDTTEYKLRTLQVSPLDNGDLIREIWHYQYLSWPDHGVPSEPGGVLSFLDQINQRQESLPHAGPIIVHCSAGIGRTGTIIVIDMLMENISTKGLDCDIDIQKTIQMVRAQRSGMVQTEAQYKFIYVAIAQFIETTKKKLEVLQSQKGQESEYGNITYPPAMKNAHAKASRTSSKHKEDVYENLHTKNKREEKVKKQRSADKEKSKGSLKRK

[10] = target: Receptor-type tyrosine-protein phosphatase F (Homo sapiens) (UniProt P10586); test: Inhibition of LAR (unknown origin) at 5 umol/L using OMFP as substrate measured for 4 mins relative to control
Receptor-type tyrosine-protein phosphatase F (Homo sapiens), sequence (P10586 whole entry, the tested form may be a part): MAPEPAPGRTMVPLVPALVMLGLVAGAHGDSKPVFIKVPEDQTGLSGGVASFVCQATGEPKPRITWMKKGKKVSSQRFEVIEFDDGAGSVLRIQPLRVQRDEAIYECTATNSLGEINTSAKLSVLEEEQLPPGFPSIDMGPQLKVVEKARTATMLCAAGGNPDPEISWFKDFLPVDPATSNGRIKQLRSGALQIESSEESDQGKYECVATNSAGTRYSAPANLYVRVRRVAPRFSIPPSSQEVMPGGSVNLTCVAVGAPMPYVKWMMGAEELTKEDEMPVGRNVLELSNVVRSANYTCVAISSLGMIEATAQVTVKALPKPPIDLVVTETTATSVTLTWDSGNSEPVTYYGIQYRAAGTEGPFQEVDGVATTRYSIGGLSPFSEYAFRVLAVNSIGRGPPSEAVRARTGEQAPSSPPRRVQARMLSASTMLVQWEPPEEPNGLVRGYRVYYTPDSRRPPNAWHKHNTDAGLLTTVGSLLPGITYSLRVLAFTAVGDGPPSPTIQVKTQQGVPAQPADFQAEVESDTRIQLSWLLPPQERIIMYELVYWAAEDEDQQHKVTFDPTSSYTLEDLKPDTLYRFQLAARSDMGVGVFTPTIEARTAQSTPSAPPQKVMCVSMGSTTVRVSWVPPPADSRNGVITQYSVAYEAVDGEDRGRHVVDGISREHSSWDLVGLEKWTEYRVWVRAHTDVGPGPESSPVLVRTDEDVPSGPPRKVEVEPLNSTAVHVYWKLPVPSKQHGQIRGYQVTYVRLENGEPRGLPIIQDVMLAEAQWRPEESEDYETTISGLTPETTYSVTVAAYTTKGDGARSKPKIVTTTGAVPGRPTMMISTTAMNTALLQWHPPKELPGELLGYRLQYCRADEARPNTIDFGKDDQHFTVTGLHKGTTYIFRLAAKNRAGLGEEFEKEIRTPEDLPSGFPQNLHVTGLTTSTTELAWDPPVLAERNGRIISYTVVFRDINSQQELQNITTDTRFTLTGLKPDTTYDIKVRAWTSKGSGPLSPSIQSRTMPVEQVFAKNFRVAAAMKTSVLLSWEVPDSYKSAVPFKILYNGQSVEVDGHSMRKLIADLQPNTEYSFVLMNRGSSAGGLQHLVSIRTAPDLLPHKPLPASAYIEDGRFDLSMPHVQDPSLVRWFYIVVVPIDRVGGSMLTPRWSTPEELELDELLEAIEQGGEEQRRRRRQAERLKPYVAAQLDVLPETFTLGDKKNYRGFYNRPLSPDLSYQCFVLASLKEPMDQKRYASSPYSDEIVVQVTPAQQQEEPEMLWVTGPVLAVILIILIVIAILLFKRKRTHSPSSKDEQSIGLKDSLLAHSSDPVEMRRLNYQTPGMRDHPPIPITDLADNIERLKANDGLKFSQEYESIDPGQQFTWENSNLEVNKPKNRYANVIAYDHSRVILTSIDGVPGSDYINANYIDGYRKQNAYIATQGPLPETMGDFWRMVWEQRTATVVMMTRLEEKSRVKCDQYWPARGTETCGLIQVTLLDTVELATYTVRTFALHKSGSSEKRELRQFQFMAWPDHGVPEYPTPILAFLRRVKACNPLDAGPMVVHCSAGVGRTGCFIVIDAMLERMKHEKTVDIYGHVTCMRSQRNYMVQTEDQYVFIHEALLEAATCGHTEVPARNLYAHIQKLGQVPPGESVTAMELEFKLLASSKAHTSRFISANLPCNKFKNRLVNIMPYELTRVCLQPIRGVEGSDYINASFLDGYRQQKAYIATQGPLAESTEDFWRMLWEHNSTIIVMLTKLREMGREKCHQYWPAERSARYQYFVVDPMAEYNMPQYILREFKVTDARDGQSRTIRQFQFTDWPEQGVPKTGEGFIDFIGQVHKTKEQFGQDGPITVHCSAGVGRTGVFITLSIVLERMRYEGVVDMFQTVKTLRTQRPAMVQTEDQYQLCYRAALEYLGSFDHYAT

[11] = target: T1, Tyrosine-protein phosphatase non-receptor type 1 (Homo sapiens); test: Inhibition of recombinant human N-terminal poly histidine-tagged PTP1B (Glu2 to Asn321 residues) expressed in Escherichia coli at 5 umol/L using pNPP as substrate measured for 4 mins relative to control
[12] = target: T4, Tyrosine-protein phosphatase non-receptor type 2 (Homo sapiens); test: Inhibition of human GST-tagged TCPTP (41 to 1075 residues) expressed in Escherichia coli at 5 umol/L using pNPP as substrate measured for 4 mins relative to control
[13] = target: T4, Tyrosine-protein phosphatase non-receptor type 2 (Homo sapiens); test: Inhibition of human GST-tagged TCPTP (41 to 1075 residues) expressed in Escherichia coli at 20 umol/L using pNPP as substrate measured for 4 mins relative to control
[14] = target: T3, Tyrosine-protein phosphatase non-receptor type 11 (Homo sapiens); test: Inhibition of human GST-tagged SHP2 (1116 to 2162 residues) at 0.5 umol/L using OMFP as substrate measured for 4 mins relative to control
[15] = target: Receptor-type tyrosine-protein phosphatase F (Homo sapiens) (UniProt P10586); test: Inhibition of LAR (unknown origin) at 1 umol/L using OMFP as substrate measured for 4 mins relative to control
[16] = target: T1, Tyrosine-protein phosphatase non-receptor type 1 (Homo sapiens); test: Inhibition of recombinant human N-terminal poly histidine-tagged PTP1B (Glu2 to Asn321 residues) expressed in Escherichia coli at 1 umol/L using pNPP as substrate measured for 4 mins relative to control
[17] = target: T1, Tyrosine-protein phosphatase non-receptor type 1 (Homo sapiens); test: Inhibition of recombinant human N-terminal poly histidine-tagged PTP1B (Glu2 to Asn321 residues) expressed in Escherichia coli at 20 umol/L using pNPP as substrate measured for 4 mins relative to control
[18] = target: Receptor-type tyrosine-protein phosphatase F (Homo sapiens) (UniProt P10586); test: Inhibition of LAR (unknown origin) at 2.5 umol/L using OMFP as substrate measured for 4 mins relative to control
[19] = target: T4, Tyrosine-protein phosphatase non-receptor type 2 (Homo sapiens); test: Inhibition of human GST-tagged TCPTP (41 to 1075 residues) expressed in Escherichia coli at 1 umol/L using pNPP as substrate measured for 4 mins relative to control
[20] = tested on: HepG2; test: Cytotoxicity against human HepG2 cells assessed as effect on cell viability at 0.1 to 10 umol/L after 24 hrs by MTT assay; type: cell-based; details: hepg2, 24 h
[21] = target: Receptor-type tyrosine-protein phosphatase F (Homo sapiens) (UniProt P10586); test: Inhibition of LAR (unknown origin) at 20 umol/L using OMFP as substrate measured for 4 mins relative to control
[22] = target: Receptor-type tyrosine-protein phosphatase F (Homo sapiens) (UniProt P10586); test: Inhibition of LAR (unknown origin) at 0.5 umol/L using OMFP as substrate measured for 4 mins relative to control
[23] = target: T3, Tyrosine-protein phosphatase non-receptor type 11 (Homo sapiens); test: Inhibition of human GST-tagged SHP2 (1116 to 2162 residues) at 20 umol/L using OMFP as substrate measured for 4 mins relative to control
[24] = target: T1, Tyrosine-protein phosphatase non-receptor type 1 (Homo sapiens); test: Inhibition of recombinant human N-terminal poly histidine-tagged PTP1B (Glu2 to Asn321 residues) expressed in Escherichia coli at 2.5 umol/L using pNPP as substrate measured for 4 mins relative to control
[25] = target: Receptor-type tyrosine-protein phosphatase F (Homo sapiens) (UniProt P10586); test: Inhibition of LAR (unknown origin) at 10 umol/L using OMFP as substrate measured for 4 mins relative to control
[26] = target: Tyrosine-protein phosphatase non-receptor type 6 (Homo sapiens) (UniProt P29350); test: Inhibition of SHP1 (unknown origin) at 2.5 umol/L using OMFP as substrate measured for 4 mins relative to control
[27] = target: Tyrosine-protein phosphatase non-receptor type 6 (Homo sapiens) (UniProt P29350); test: Inhibition of SHP1 (unknown origin) at 20 umol/L using OMFP as substrate measured for 4 mins relative to control
[28] = target: T2, Tyrosine-protein phosphatase non-receptor type 1; test: Inhibition of recombinant human N-terminal poly histidine-tagged PTP1B (Glu2 to Asn321 residues) expressed in Escherichia coli using pNPP as substrate measured for 4 mins
[29] = target: T4, Tyrosine-protein phosphatase non-receptor type 2 (Homo sapiens); test: Inhibition of human GST-tagged TCPTP (41 to 1075 residues) expressed in Escherichia coli at 0.5 umol/L using pNPP as substrate measured for 4 mins relative to control
[30] = target: Tyrosine-protein phosphatase non-receptor type 6 (Homo sapiens) (UniProt P29350); test: Inhibition of SHP1 (unknown origin) at 10 umol/L using OMFP as substrate measured for 4 mins relative to control
[31] = target: T3, Tyrosine-protein phosphatase non-receptor type 11 (Homo sapiens); test: Inhibition of human GST-tagged SHP2 (1116 to 2162 residues) at 1 umol/L using OMFP as substrate measured for 4 mins relative to control
[32] = tested on: HepG2; test: Induction of insulin-stimulated 2-NBDG uptake in palmitic acid-induced insulin resistant human HepG2 cells at 1 to 10 umol/L preincubated for 24 hrs followed by insulin stimulation and measured after 30 mins by fluorescence assay; type: functional, cell-based
[33] = target: T1, Tyrosine-protein phosphatase non-receptor type 1 (Homo sapiens); test: Inhibition of recombinant human N-terminal poly histidine-tagged PTP1B (Glu2 to Asn321 residues) expressed in Escherichia coli at 0.5 umol/L using pNPP as substrate measured for 4 mins relative to control
[34] = target: T3, Tyrosine-protein phosphatase non-receptor type 11 (Homo sapiens); test: Inhibition of human GST-tagged SHP2 (1116 to 2162 residues) at 2.5 umol/L using OMFP as substrate measured for 4 mins relative to control
[35] = target: T4, Tyrosine-protein phosphatase non-receptor type 2 (Homo sapiens); test: Inhibition of human GST-tagged TCPTP (41 to 1075 residues) expressed in Escherichia coli at 10 umol/L using pNPP as substrate measured for 4 mins relative to control
[36] = target: Tyrosine-protein phosphatase non-receptor type 6 (Homo sapiens) (UniProt P29350); test: Inhibition of SHP1 (unknown origin) at 1 umol/L using OMFP as substrate measured for 4 mins relative to control
[37] = target: Tyrosine-protein phosphatase non-receptor type 6 (Homo sapiens) (UniProt P29350); test: Inhibition of SHP1 (unknown origin) at 0.5 umol/L using OMFP as substrate measured for 4 mins relative to control
[38] = target: T1, Tyrosine-protein phosphatase non-receptor type 1 (Homo sapiens); test: Inhibition of recombinant human N-terminal poly histidine-tagged PTP1B (Glu2 to Asn321 residues) expressed in Escherichia coli at 10 umol/L using pNPP as substrate measured for 4 mins relative to control
[39] = tested on: HepG2; test: Inhibition of PTP1B expression in palmitic acid-induced insulin resistant human HepG2 cells at 0.1 to 10 uM by western blot analysis; type: functional, cell-based

SODIUM ORTHOVANAD
inhibition [1]: 75.4%

Ac-WIAQELRRIGDEFN-NH2
inhibition [2]: 9.43%

Ac-IWIAQELRRIGDEFNA-NH2
Ka [3]: 2.37 ×10⁴ /Ms
Kd [4]: 26.9 nM
inhibition [2]: 2.32%
Kdiss [5]: 6.38 ×10⁻⁴ /s

CCCCCCCCCCCCCCCC(=O)N[C@H](C(=O)N[C@@H](C)C(=O)N[C@@H](CCC(N)=O)C(=O)N[C@@H](CCC(=O)O)C(=O)N[C@@H](CC(C)C)C(=O)N[C@@H](CCCNC(=N)N)C(=O)N[C@@H](CCCNC(=N)N)C(=O)N[C@H](C(=O)NCC(=O)N[C@@H](CC(=O)O)C(=O)N[C@@H](CCC(=O)O)C(=O)N[C@@H](Cc1ccccc1)C(N)=O)[C@@H](C)CC)[C@@H](C)CC (HELM PEPTIDE1{[CCCCCCCCCCCCCCCC(=O)[*:2]].I.A.Q.E.L.R.R.I.G.D.E.F.[am]}$$$$V2.0)
inhibition [6]: 2.83%
inhibition [7]: 8.22%
inhibition [8]: 2.77%
inhibition [9]: 2.22%
Ka [3]: 2.17 ×10⁴ /Ms
inhibition [10]: 1.52%
inhibition [11]: 89.3%
inhibition [12]: 8.63%
inhibition [13]: 35.2%
inhibition [14]: 0.96%
Kd [4]: 8.38 nM
inhibition [15]: 3.88%
inhibition [16]: 47.2%
inhibition [17]: 93.7%
inhibition [18]: 2.33%
inhibition [19]: 6.22%
Activity [20]: Non-Toxic
inhibition [21]: 1.73%
inhibition [22]: 2.02%
inhibition [23]: 10.6%
inhibition [24]: 80.6%
inhibition [25]: 3.36%
inhibition [26]: 2.88%
inhibition [27]: 9.22%
inhibition [2]: 98%
IC50 [28]: 1200 nM
inhibition [29]: 5.25%
inhibition [30]: 3.89%
inhibition [31]: 2.02%
Kdiss [5]: 1.82 ×10⁻⁴ /s
Activity [32]: Active
inhibition [33]: 8.68%
inhibition [34]: 3.52%
inhibition [35]: 12.2%
inhibition [36]: 1.36%
inhibition [37]: 2.03%
inhibition [38]: 92%
inhibition [39]: Active
